Results published in US20250115595A1, “INHIBITORS OF HYPOXIA-INDUCIBLE FACTORS” (The Johns Hopkins University, priority 2021, published 2025).

Test system: HIF target genes
Assay: RT-qPCR of HIF target gene expression in Hep3B cells
Format: cell-based, human
Conditions: not given
Description: Based on hit compound 11-88, a number of analogs were prepared in which either halogen substitutions to the indole groups were altered or the central thiazole was replaced by imidazole, isoxazole, oxadiazole, oxazole, pyrazinone, pyridazine, pyrazine, pyrazole, pyridine, thiadiazole, triazine, or triazole. […] The bis-bromoindole thiazole 32-134D and the bis-indole thiadiazole 33-063 (FIGS. 1B and 1C) were further characterized with respect to endogenous HIF target gene expression in Hep3B cells. […] For comparison, we tested the effect of PT2385, which inhibited EPO, NDRG1, ANGPTL4, and VEGFA expression but had no effect on CA9, which is consistent with its HIF-2-selective mechanism of action (Wallace E M et al., Cancer Res. 2016; 76(18):5491-5500). None of the compounds had any effect on RPL13A expression, which is neither hypoxia-induced nor HIF-regulated (FIG. 3).
(§1) Human Hep3B and mouse Hepa1-6 cells were purchased from ATCC and grown in high-glucose (4.5 mg/ml) Dulbecco's modified Eagle's medium supplemented with 10% (vol/vol) fetal bovine serum and […] at 37° C. in a 5% CO2/95% air incubator (20% O2). Human cell line identity was authenticated by analysis of short tandem repeats, and all cell lines were maintained mycoplasma free, using PCR-based assays conducted at the Johns Hopkins University Genetic Resources Core Facility. Cells were subjected to hypoxia in a controlled atmosphere chamber (PLAS Labs) with ambient gas mixture containing 1% O2 and 5% CO2.
(§2) RNA was extracted using TRIzol Reagent (ThermoFisher). Quantitative Real-time PCR was conducted using SYBR Green PCR Master Mix (BioRad) and reactions were run using the BioRad thermal cycler (BioRad). The mRNA expression of target genes was normalized to the expression of 18S rRNA and the fold change (FC) was calculated based on the threshold cycle (Ct) as
FC=2^−Δ(ΔCt) where ΔCt=Cttarget gene−Ct18S rRNA and Δ(ΔCt)=ΔCttreatment−ΔCtcontrol.

Compound | hypoxia-induced expression of HIF target genes CA9, ANGPTL4, VEGFA, NDRG1 and EPO | CA9 expression | EPO, NDRG1, ANGPTL4 and VEGFA expression
c1ccc2c(-c3nsc(-c4c[nH]c5ccccc45)n3)c[nH]c2c1 [Compound 33-063, 3,5-di(1H-indol-3-yl)-1,2,4-thiadiazole] | inhibited | – | –
CS(=O)(=O)c1ccc(Oc2cc(F)cc(C#N)c2)c2c1[C@H](O)C(F)(F)C2 [PT2385, reference compound] | – | no effect | inhibited

Test system: Hepa1-6 mouse HCC cells
Assay: RT-qPCR of hypoxia-induced mRNAs in Hepa1-6 cells
Format: cell-based
Conditions: hypoxic Hepa1-6 cells
Description: Effects of 32-134D on Hepa1-6 mouse HCC cells and tumors. […] Thus, 32-134D inhibits the ability of hypoxic HCC cells to increase O2 delivery by stimulating angiogenesis (Angpt14, Pgf, Vegfa) or […] anaerobic metabolism by increasing glycolytic flux (Glut1, Pgk1, Ldha).
as §1
as §2, with “(Ct) as […]” for “(Ct) as”

Compound | hypoxia-induced expression of mRNA encoding Angpt14, Pgf, Vegfa and Pgk1 | expression of Pgk1 mRNA
c1ccc2c(-c3nsc(-c4c[nH]c5ccccc45)n3)c[nH]c2c1 [Compound 33-063, 3,5-di(1H-indol-3-yl)-1,2,4-thiadiazole] | significant dose-dependent inhibition | –
CS(=O)(=O)c1ccc(Oc2cc(F)cc(C#N)c2)c2c1[C@H](O)C(F)(F)C2 [PT2385, reference compound] | – | no effect

Same assay, conditions: hypoxic Hepa1-6 cells, compared with 33-063 and 32-134D

Compound | Angpt14, Pgf, and Vegfa mRNA expression
CS(=O)(=O)c1ccc(Oc2cc(F)cc(C#N)c2)c2c1[C@H](O)C(F)(F)C2 [PT2385, reference compound] | less potent inhibitor

Test system: HIF transcriptional activity
Assay: Luciferase reporter assay (FLuc/RLuc) in hypoxic Hep3B-c1 cells
Format: cell-based
Conditions: Homo sapiens, FLuc/RLuc ratio, 1% O2, 24 hours
Description: The NCI CellMiner database contains expression data on 25,698 mRNAs in 60 human cancer cell lines that were exposed to 21,770 chemical compounds (Reinhold W C, et. al., Cancer Res. 2012; 72(14):3499-3511). The CellMiner database was interrogated for compounds that induced changes in gene expression highly correlated with those induced by acriflavine, but would be structurally unrelated to acriflavine. Compounds that satisfied these criteria were analyzed in Hep3B-c1 cells (Zhang H. et. al., Proc Natl Acad Sci USA. 2008; 105(50):19579-19586), which are stably transfected with: HIF dependent reporter plasmid p2.1, in which firefly luciferase (FLuc) coding sequences are located downstream from a hypoxia response element (HRE) and a basal SV40 promoter; and control reporter pSVR, in which Renilla luciferase (RLuc) coding sequences are downstream of the basal SV40 promoter only (FIG. 1A).
Hep3B-c1 cells (Zhang 2008), which are stably co-transfected with reporter plasmids p2.1, a hypoxia-inducible firefly luciferase reporter gene containing a hypoxia response element (HRE), and pSVR, a constitutively expressed Renilla luciferase reporter gene, were seeded on 24-well plates. Cells were treated with compounds the following day and exposed to 20% or 1% O2 for 24 hours. For transient transfection, cells were seeded, transfected with the listed plasmids and compounds, and exposed to 20% or 1% O2 for 24 hours. FLuc/RLuc ratios were determined using the Dual Luciferase Reporter Assay System (Promega) and the VICTOR Nivo plate reader (PerkinElmer).

Compound | IC50 [µM]
c1ccc2c(-c3csc(-c4c[nH]c5ccccc45)n3)c[nH]c2c1 [Compound 33-057A] | 2.86
Brc1ccc2c(-c3nc(-c4c[nH]c5ccc(Br)cc45)cs3)c[nH]c2c1 [Compound 11-88] | 2.9
c1ccc2c(-c3nc(-c4cnc5ncccn45)cs3)c[nH]c2c1 [Compound 12-93F] | 2.48
Clc1ccc2c(-c3nc(-c4c[nH]c5cc(Br)ccc45)cs3)c[nH]c2c1 [Compound 12-147B] | 3.08
c1ccc2c(-c3ccnc(-c4c[nH]c5ccccc45)n3)c[nH]c2c1 [Compound 35-020] | 2.37
Fc1cccc2c(-c3nc(-c4c[nH]c5cc(Br)ccc45)cs3)c[nH]c12 [Compound 12-143] | 2.6
O=c1[nH]cc(-c2c[nH]c3ccccc23)nc1-c1c[nH]c2ccccc12 [Compound 33-123] | 3.24
c1ccc2c(-c3cc(-c4c[nH]c5ccccc45)on3)c[nH]c2c1 [Compound 35-140] | 1.94
Brc1ccc2c(-c3nc(-c4c[nH]c5c(Br)cccc45)cs3)c[nH]c2c1 [Compound 13-03] | 2.69
c1ccc2c(-c3nsc(-c4c[nH]c5ccccc45)n3)c[nH]c2c1 [Compound 33-063, 3,5-di(1H-indol-3-yl)-1,2,4-thiadiazole] | 2.2
c1ccc2c(-c3cncc(-c4c[nH]c5ccccc45)n3)c[nH]c2c1 [Compound 34-110] | 1.27
Brc1ccc2[nH]cc(-c3csc(-c4c[nH]c5ccccc45)n3)c2c1 [Compound 11-147B] | 2.92
Clc1ncc(-c2c[nH]c3ccccc23)nc1-c1c[nH]c2ccccc12 [Compound 34-146] | 2.04
O=c1[nH]c2ccc(-c3csc(-c4c[nH]c5ccccc45)n3)cc2o1 [Compound 12-93A] | 2.4
c1cc(-c2c[nH]c3ccccc23)nc(-c2c[nH]c3ccccc23)c1 [Compound 34-090] | 1.83
Brc1ccc2[nH]cc(-c3nnc(-c4c[nH]c5ccc(Br)cc45)o3)c2c1 [Compound 33-103B] | 2.87
Brc1cccc2c(-c3csc(-c4c[nH]c5c(Br)cccc45)n3)c[nH]c12 [Compound 13-01] | 2.07
Brc1ccc2c(-c3csc(-c4c[nH]c5cc(Br)ccc45)n3)c[nH]c2c1 [Compound 32-134C] | 2.3
Brc1ccc2c(-c3csc(-c4c[nH]c5ccccc45)n3)c[nH]c2c1 [Compound 12-58] | 3.09
Brc1ccc2c(-c3nc(-c4cnc5ncccn45)cs3)c[nH]c2c1 [Compound 12-70C] | 2.31
Fc1ccc2c(-c3nc(-c4c[nH]c5cc(Br)ccc45)cs3)c[nH]c2c1 [Compound 12-147A] | 2.52
Brc1ccc2c(-c3nnc(-c4c[nH]c5cc(Br)ccc45)o3)c[nH]c2c1 [Compound 33-103C] | 2.8
Brc1ccc2[nH]cc(-c3nnc(-c4c[nH]c5ccccc45)o3)c2c1 [Compound 33-093B] | 2.7
c1ccc2c(-c3cc(-c4c[nH]c5ccccc45)[nH]n3)c[nH]c2c1 [Compound 35-092] | 2.07
c1ccc2c(-c3nnc(-c4c[nH]c5ccccc45)o3)c[nH]c2c1 [Compound 33-087] | 2.51

Test system: advanced HCC
Assay: not given
Conditions: advanced HCC patients; cited from earlier work

Compound | survival benefit
CNC(=O)c1cc(Oc2ccc(NC(=O)Nc3ccc(Cl)c(C(F)(F)F)c3)cc2)ccn1 [sorafenib] | 2-3 months
